# Counter-ions that a name gives are not always drawn.
# Assay: in vitro
# Settings: rat, gh3-tre-luc cells, AC50 (uM) modified / 1000
row,SMILES,CC50 at 24 h [µM]
1,O=C1C(N(CO)C(=O)NCO)N(CO)C(=O)N1CO (centres unmarked) [Diazolidinyl urea],> 90
2,Cc1nnc(SCC2=C(C(=O)O)N3C(=O)[C@@H](NC(=O)Cn4cnnn4)[C@H]3SC2)s1 [Cefazolin],> 50
3,CC1CN(c2ccccc2)NC1=O (centres unmarked) [4-Methyl-1-phenylpyrazolidin-3-one],> 90
4,CC(=O)Oc1ccc([N+](=O)[O-])cc1CCl [2-Acetoxy-5-nitrobenzyl chloride],67
5,CC[C@H]1OC(=O)[C@H](C)[C@@H](O[C@H]2C[C@@](C)(OC)[C@@H](O)[C@H](C)O2)[C@H](C)[C@@H](O[C@@H]2O[C@H](C)C[C@H](N(C)C)[C@H]2O)[C@](C)(O)C[C@@H](C)[C@@H]2N[C@@H](COCCOC)O[C@H]([C@H]2C)[C@]1(C)O [Dirithromycin],> 50
6,NC(=O)Cc1cccc(C(=O)c2ccccc2)c1N [Nepafenac],> 50
7,CC(O)CCCCn1c(=O)c2c(ncn2C)n(C)c1=O (racemic) [(+/-)-Lisofylline],> 50
8,Cc1onc(-c2ccccc2)c1-c1ccc(S(N)(=O)=O)cc1 [Valdecoxib],> 50
9,Oc1ccc(Oc2ccccc2)cc1 [4-Phenoxyphenol],35.8
10,CCOC(=O)/C=C/C(=O)OCC [Diethyl (2E)-but-2-enedioate],> 90
11,N=C(N)NCCCCCCC(=O)NC(O)C(=O)NCCCCNCCCN (centres unmarked) [Gusperimus trihydrochloride],> 50
12,"Oc1cc(Cl)ccc1Cl [2,5-Dichlorophenol]",> 90
13,Nc1nc(-c2ccccc2)cs1 [2-Amino-4-phenylthiazole hydrobromide hydrate],> 90
14,Cc1ccnc2ccccc12 [Lepidine],> 90
15,CCCCCCCCCCCCCCCCO [1-Hexadecanol],> 90
16,CCCCCCC1(C)CCC(=O)O1 (centres unmarked) [Dihydrojasmone lactone],> 90
17,"CC(C)c1cc(C(C)C)cc(C(C)C)c1 [1,3,5-Triisopropylbenzene]",> 90

row,SMILES,CC50 at 24 h [µM]
1,COc1ccc2c(=O)c(C)c(-c3ccccc3)oc2c1CN(C)C [Dimefline hydrochloride],> 50
2,CCNc1ccccc1 [N-Ethylaniline],> 90
3,Cc1ccc([N+](=O)[O-])cc1Cl [2-Chloro-1-methyl-4-nitrobenzene],> 90
4,"NC(=O)Nc1ccc(Cl)c(Cl)c1 [3,4-Dichlorophenylurea]",> 90
5,CCC(C)c1nccnc1OC (centres unmarked) [2-sec-Butyl-3-methoxypyrazine],> 90
6,"Cc1cc(S(=O)(=O)O)ccc1N=Nc1c(O)ccc2ccccc12 [C.I. Acid Orange 8, monosodium salt]",19.3
7,"CC(C)CC(O)CC(C)C [2,6-Dimethyl-4-heptanol]",> 90
8,N#C/N=C1\SCCN1Cc1ccc(Cl)nc1 [Thiacloprid],> 90
9,C[C@@H]1CCC[C@H](C)N1 [cis-Nanophine hydrochloride],> 20
10,CCOC(=O)C(SP(=S)(OC)OC)c1ccccc1 (centres unmarked) [Phenthoate],> 90
11,CCCCCCOc1ccc(C(=N)N(CCCC)CCCC)c2ccccc12 [Bunamidine hydrochloride],5.23
12,CNC(=O)O/N=C/C(C)(C)SC [Aldicarb],> 90
13,"CC(C)[C@H]1CC[C@@H](C)CC1=O (stereo in doubt) [(2R,5R)-5-Methyl-2-(propan-2-yl)cyclohexanone]",> 90
14,C=CC(C)(O)CC/C=C(\C)CCC=C(C)C (centres unmarked) [Nerolidol],> 90
15,CCCO[Si](OCCC)(OCCC)OCCC [Tetrapropyl orthosilicate],> 90
16,CCC(=O)OCC(=O)[C@@]1(OC(=O)CC)[C@H](C)C[C@H]2[C@H]3[C@H]([C@@H](O)C[C@@]21C)[C@@]1(C)C=CC(=O)C=C1C[C@H]3Cl [Alclometasone dipropionate],> 20
17,O=C(O)c1ccccc1-n1cc(C(=O)O)c(=O)c2cc(Nc3c(F)cc(F)cc3Cl)c(Cl)cc21 [AVE9423],> 90

# Same assay, conditions: rat, gh3-tre-luc cells, AC50 (uM) modified / 1000, Tox21_110001=Tox21_202607; viability, 1 nM T3 present, 24 h
row,SMILES,CC50 at 24 h [µM]
1,BrCC1CO1 (centres unmarked) [Epibromohydrin],> 90

# — publication PMC6792352, “Limited Chemical Structural Diversity Found to Modulate Thyroid Hormone Receptor in the Tox21 Chemical Library” (Environmental Health Perspectives, 2019)
